According to PMC8365601, “Terphenyl-Based Small-Molecule Inhibitors of Programmed Cell Death-1/Programmed Death-Ligand 1 Protein–Protein Interaction” (Journal of Medicinal Chemistry, 2021):
Read-outs that look alike come from different tables or passages of the source.

Experiments:
PD-1/PD-L1 complex = PD-1/PD-L1 complex (Homo sapiens, UniProt Q9NZQ7); assay: HTRF assay of PD-1/PD-L1 complex dissociation (CisBio); settings: for remaining activity at 0.005 µM: 2 h;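 for all read-outs here: human PD-L1 at 5 nM with human PD-1 at 50 nM, TR-FRET signal read after 2 h at room temperature, background removed via negative control and scaled to positive control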
[1] = system: Jurkat-ECs alone or with CHO wt or CHO/TCRAct cells; assay: ICB assay control where PD-L1 is absent; assay type: cell-based; settings: 6 h; Figure S1
Method: The functional assay of the blockade of PD-1/PD-L1 interaction in vitro (PD-1/PD-L1 Blockade Bioassay, Promega) was performed according to the manufacturer’s protocol. CHO/TCRAct/PD-L1 cells or CHO/TCRAct or CHO-K1 cells were seeded on 96-well white plates at the density of 10,000 cells/well and the next day overlaid with Jurkat T cells (20,000 cells/well) in the presence of increasing concentrations of the compounds with DMSO only as a control (the concentration of DMSO was kept constant at 0.1%) or atezolizumab, as a positive control, anti-PD-L1 monoclonal antibody (Selleckchem). The 2.5-fold dilutions of atezolizumab were prepared in the assay buffer (RPMI 1640 + 1% FBS) on the day of the assay. Activation of the Jurkat T cells, reflected by luciferase activity, was monitored by luminescence measurements after 6 h of incubation (37 °C, 5% CO2), and 20 min of additional incubation with the Bio-Glo assay reagent (Promega) at room temperature. The luminescence was read on a Spark microplate reader (Tecan). The data are presented as fold induction of the luminescence signal relative to either untreated (for atezolizumab) or DMSO-treated (for compound) cells. Data points represent mean ± SD values from three to five independent experiments. Half-maximal effective concentrations (EC50 values) were calculated from the Hill curve fitting to the experimental data using Origin Pro 2020 software (OriginLab). […]
of the Immune Checkpoint Blockade (ICB) assay, where 8h, 8i, and 8j were used to restore the activation of effector Jurkat-ECs. Jurkat-ECs were either kept alone, or contacted with one of the following cell lines: wild type CHO K1 cells (CHO wt), CHO K1 cells expressing TCR Activator (CHO/TCRAct), or CHO K1 cells expressing TCR Activator and […]. The cells were incubated with the indicated concentrations of the compounds for 6 hours and luminescence was measured as an indicator of TCR-dependent activation of Jurkat-ECs. The graphs present fold induction of the luminescence signal relative to DMSO-treated cells. […]

[2] = system: primary CD4+ and CD8+ T cells (PBMCs); assay: T-cell activation (TCA) assay, PBMCs with CHO/TCRAct/PD-L1 cells, flow cytometry; assay type: cell-based, human; settings: 48 h; compounds 0.1, 0.5, 2.5 μM; mAbs 5 μg/mL
Method: A standard ICB assay relies on artificial Jurkat-ECs, which are surrogates of T-cells. To verify the potential of the compounds to reactivate the PD-L1-blocked primary T cells, a modified assay termed T-cell activation (TCA) was carried out.[32] In this assay, human primary peripheral blood mononuclear cells (PBMCs) are allowed to make contact with CHO/TCRAct/PD-L1 cells alone or in the presence of PD-1/PD-L1 blockers, and the activation of CD4^+ and CD8^+ T cell is monitored by flow cytometry.
Anticoagulant citrate dextrose-A-treated blood from healthy donors was purchased from the Regional Center of Blood Donation and Blood Therapy in Krakow, Poland. PBMCs were isolated from whole blood by density gradient centrifugation using Pancoll human separating solution (PAN-Biotech GmbH, Aidenbach, Germany). The separated cells were washed and resuspended in RPMI 1640 medium (Biowest) containing 10% FBS (Biowest). PBMCs were added at an amount of 3 × 10^5 to CHO, CHO/TCRAct, or CHO/TCRAct/PD-L1 cells preseeded on 24-well plates in the presence of either anti-PD-L1 mAbs (at the final concentration 5 μg/mL): durvalumab (Selleckchem), atezolizumab (Selleckchem), or avelumab (MedChemExpress) or tested compounds at the concentrations 0.1, 0.5, and 2.5 μM. Untreated cells were used as controls for antibody treatment, while DMSO-treated cells [0.1% (v/v)] were used as controls for compound treatment. The cells were incubated for 48 h (37 °C, 5% CO2) and then detached from the plates with TrypLe Select Enzyme (Thermo Fisher). PBMCs were stained for 20 min at room temperature with the antibodies: anti-CD4-FITC, anti-CD8-BV510, anti-CD69-APC, anti-CD25-PE, anti-HLA-DR-PerCP, and anti-PD1-PECy7 (Becton Dickinson Biosciences, BD). Following two washing steps, the cells were analyzed with a FACSCanto II cytometer. Data analysis was carried out with FlowJo software, followed by statistical significance calculations done with Origin Pro 2020 software (OriginLab). Statistical significance was analyzed with one-way analysis of variance (ANOVA), followed by the Fisher’s posthoc test: *p < 0.05, **p < 0.01, […].

PD-1/PD-L1 interaction = target: T1, PD-1/PD-L1 interaction (Homo sapiens, UniProt Q9NZQ7); assay: PD-1/PD-L1 ICB assay (Jurkat-ECs with CHO/TCRAct/PD-L1 cells, luciferase); assay type: cell-based
T1 construct: host or cells: CHO-K1 (CHO/TCRAct/PD-L1) and Jurkat effector cells
Method: After a successful optimization of the terphenyl compounds, the activity of the optimized molecules 7a and 8a–j in a cellular context was assessed. To this end, we first performed the PD-1/PD-L1 ICB assay. In this assay, T-cell receptor (TCR)-mediated activation of Jurkat effector cells (Jurkat-ECs) is reduced by the presence of PD-L1, exposed at the surface of CHO/TCRAct/PD-L1 cells (Figure 3A).
The functional assay of the blockade of PD-1/PD-L1 interaction in vitro (PD-1/PD-L1 Blockade Bioassay, Promega) was performed according to the manufacturer’s protocol. CHO/TCRAct/PD-L1 cells or CHO/TCRAct or CHO-K1 cells were seeded on 96-well white plates at the density of 10,000 cells/well and the next day overlaid with Jurkat T cells (20,000 cells/well) in the presence of increasing concentrations of the compounds with DMSO only as a control (the concentration of DMSO was kept constant at 0.1%) or atezolizumab, as a positive control, anti-PD-L1 monoclonal antibody (Selleckchem). The 2.5-fold dilutions of atezolizumab were prepared in the assay buffer (RPMI 1640 + 1% FBS) on the day of the assay. Activation of the Jurkat T cells, reflected by luciferase activity, was monitored by luminescence measurements after 6 h of incubation (37 °C, 5% CO2), and 20 min of additional incubation with the Bio-Glo assay reagent (Promega) at room temperature. The luminescence was read on a Spark microplate reader (Tecan). The data are presented as fold induction of the luminescence signal relative to either untreated (for atezolizumab) or DMSO-treated (for compound) cells. Data points represent mean ± SD values from three to five independent experiments. Half-maximal effective concentrations (EC50 values) were calculated from the Hill curve fitting to the experimental data using Origin Pro 2020 software (OriginLab).

[3] = Cytotoxicity assay toward Jurkat-ECs; assay type: cell-based; settings: human, Jurkat-EC cells, SI csv
Method: The cytotoxicity of compounds was verified toward Jurkat-ECs since these cells provide the readout in the ICB assay and present a much higher degree of susceptibility to the compounds’ toxicity than CHO-K1 cells (not shown). Jurkat-ECs were seeded on 96-well transparent plates in the presence of increasing concentrations of the compounds with DMSO-treated cells as a control. The concentration of DMSO was kept constant (0.1%). After 48 h of incubation, a tetrazolium reagent, Biolog redox dye MIX MB (Biolog), was added according to the manufacturer’s protocol, and the culture plates were incubated for an additional 2 h (37 °C, 5% CO2). The absorbance was measured using a Spark microplate reader (Tecan) at 590 nm with 750 nm as a reference. The data are presented as Jurkat-EC survival relative to DMSO-treated control cells. Data points represent mean ± SD values from three independent experiments. Half-maximal effective concentrations (EC50 values) were calculated from the dose–response curve using OriginPro 2020 (OriginLab) software.

[4] = system: PBMCs cocultured with CHO/TCRAct/PD-L1 cells; assay: Cytokine accumulation in culture media of the TCA assay (CBA Th1/Th2/Th17 kit); assay type: cell-based, human; settings: TCA assay supernatants, four donors
Method: In addition to the expression of surface markers, the accumulation of immune-related cytokines in the culture media collected in the TCA assay was monitored with the cytometric bead array (CBA) human Th1/Th2/Th17 kit. […] Also, the levels of IL-6, IFN-γ, and IL-2 increased, but these increases were not statistically significant.
The concentration of the cytokines (IL-2, IL-4, IL-6, IL-10, IL-17A, IFN-γ, and TNFα) in supernatants was determined using the CBA Human Th1/Th2/Th17 kit (BD Biosciences), with data acquisition using the FACSCanto flow cytometer. The CBA beads were discriminated in FL-4 and FL-5 channels, while the concentration of specified cytokines was determined by the intensity of FL-2 fluorescence, using the respective standard reference curve and FCAP Array software (BD Biosciences). IL-4 was below the detection level and is not presented in the manuscript. Statistical significance was analyzed with one-way ANOVA using the Origin Pro 2020 software, followed by the Fisher’s posthoc test: *p < 0.05, **p < 0.01, […].

T1 sequence (Q9NZQ7 19-290): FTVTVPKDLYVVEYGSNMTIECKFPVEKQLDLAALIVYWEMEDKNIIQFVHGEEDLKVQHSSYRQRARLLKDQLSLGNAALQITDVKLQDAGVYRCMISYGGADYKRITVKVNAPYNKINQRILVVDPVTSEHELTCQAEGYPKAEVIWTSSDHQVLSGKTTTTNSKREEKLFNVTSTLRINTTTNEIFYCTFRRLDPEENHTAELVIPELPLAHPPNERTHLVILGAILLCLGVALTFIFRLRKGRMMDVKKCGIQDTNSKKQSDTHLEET
PD-1/PD-L1 complex, sequence (Q9NZQ7 19-238 limits assumed, one chain of several): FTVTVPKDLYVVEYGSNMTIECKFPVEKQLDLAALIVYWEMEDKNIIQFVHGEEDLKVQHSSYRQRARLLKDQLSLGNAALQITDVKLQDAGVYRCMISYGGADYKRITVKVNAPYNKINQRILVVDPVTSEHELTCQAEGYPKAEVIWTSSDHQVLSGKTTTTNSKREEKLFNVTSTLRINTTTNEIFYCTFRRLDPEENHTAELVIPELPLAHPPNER

Row | remaining activity at 0.005 µM (PD-1/PD-L1 complex; read-out: % of undissociated complex at 5 nM) [%] | remaining activity at 0.005 µM (PD-1/PD-L1 complex; read-out: HTRF % of the undissociated complex at 5 nM) [%] | IC50 (PD-1/PD-L1 complex; HTRF, Table 4, <1.00 = limit of quantification reached) [µM] | EC50 (PD-1/PD-L1 interaction; Jurkat-ECs with CHO/TCRAct/PD-L1, 6 h, SI csv, read-out: Bioactivity (EC50 in the ICB assay)) [µM] | Compound | activation of Jurkat-ECs where PD-L1 is absent [1] | numbers of PD-1-positive T cells [2] | selectivity of PD-1/PD-L1-blocking activity versus cytotoxicity (PD-1/PD-L1 interaction; EC50 (tox.) vs EC50 (bio.), Figure 3F) | EC50 at 48 h [3] [µM] | accumulation of immune-related cytokines in culture media [4] | activation of Jurkat-ECs (PD-1/PD-L1 interaction; 6 h, fold induction of luminescence)
1 | 6 | 6 | < 0.001 | 2 ± 0.37 | COc1cc(-c2cccc(-c3ccc4c(c3)OCCO4)c2Cl)ccc1CNCCNC(N)=O [8h, 1-(2-(((3′-(Benzo-1,4-dioxan-6-yl)-2′-chloro-3-methoxy-[1,1′-biphenyl]-4-yl)methyl)amino)ethyl)urea] | requires the presence of PD-L1 | significant increase | highest selectivity | 4.14 ± 0.71 | – | –
2 | – | – | – | – | atezolizumab: therapeutic anti-PD-L1 monoclonal antibody, positive control | – | increases the expression of PD-1 on T-cells | – | – | significantly increased levels of IL-17A, TNF-α, and IL-10 | full activation of Jurkat-ECs is restored
